# Results from publication PMC11219871, “Epigenetic-based differentiation therapy for Acute Myeloid Leukemia” (Nature Communications, 2024).
# Legend:
# Test in all cases: Epigenetic panel (BPS Bioscience)
# Format in all cases: biochemical
# EZH2 (A677G) = biological target: T1, EZH2 (A677G) (Homo sapiens, UniProt Q15910, A677G)
# T1 construct: purchased BPS Bioscience; Eurofins (HDAC4, 5, 7-11)
# Text: (§1) The selectivity of CM-444 and CM-1758 against other epigenetic targets, including histone demethylase (JMJD2A, JMJD2B, JMJD2C, JMJD2D, JMJD2E, JMJD3, JMJD1A, LSD1, Jarid1A, Jarid1B, Jarid1C, FBXL10, FBXL11, JHDM1D, JMJD1B, PHF8, LSD2 and UTX); histone acetyltransferases (GCN5, P300); histone methyltransferases (G9a, GLP, MLL1, SET7/9, SUV39H1, SUV39H2, PRMT1, PRMT3, PRMT4, PRMT5, PRMT6, PRMT8, PRMT9, NSD1, NSD2, EZH1, EZH2, SETDB1, SETD2, SET8, SUV4-20H1, SMYD2, SMYD3, DOT1L, EZH2 (A677G), EZH2 (A677G), EZH2 (A738T), EZH2 (Y641S), EZH2 (P132S), EZH2 (Y641C), EZH2 (Y641F), EZH2 (Y641H), EZH2 (Y641N)); bromodomains (ATAD2B, ATAD2A, BRD1, BRD9, BPTF/FALZ, CeCR2, BRPF3, BRD3 (BD1 + BD2), BAZ2B, WDR9, TAF1 (BD2), TAF1L (BD2), TAF1L (BD1 + BD2), BRD2 (BD1), BRD2 (BD2), BRD2 (BD1 + BD2), BRD3 (BD1), BRD3 (BD2), BRD4 (BD1), BRD4 (BD2), BRD4 (BD1 + BD2), BRDT (BD1), BRDT (BD1 + BD2), CREBBP, SMARCA2A, SMARCA4/BRG1); DNA methyltranferases (DNMT1, DNMT3A/3L and DNMT3B/3L), and sirtuin histone deacetylases (SIRT1, SIRT2, SIRT3, SIRT5 and SIRT6), were determined by BPS Bioscience (http://www.bpsbioscience.com/index.ph). Binding experiments were performed in duplicate at a concentration of 10 μM.
# DNMT3B/3L = biological target: T2, DNMT3B/3L (Homo sapiens, UniProt Q9UBC3)
# T2 construct: purchased BPS Bioscience (contracted assay service)
# Text: as §1
# JHDM1D = biological target: T3, JHDM1D (Homo sapiens, UniProt Q6ZMT4)
# T3 construct: purchased BPS Bioscience; Eurofins (HDAC4, 5, 7-11)
# Text: as §1
# Jarid1C = biological target: T4, Jarid1C (Homo sapiens, UniProt P41229)
# T4 construct: purchased BPS Bioscience; Eurofins (HDAC4, 5, 7-11)
# T4 sequence (P41229 whole entry): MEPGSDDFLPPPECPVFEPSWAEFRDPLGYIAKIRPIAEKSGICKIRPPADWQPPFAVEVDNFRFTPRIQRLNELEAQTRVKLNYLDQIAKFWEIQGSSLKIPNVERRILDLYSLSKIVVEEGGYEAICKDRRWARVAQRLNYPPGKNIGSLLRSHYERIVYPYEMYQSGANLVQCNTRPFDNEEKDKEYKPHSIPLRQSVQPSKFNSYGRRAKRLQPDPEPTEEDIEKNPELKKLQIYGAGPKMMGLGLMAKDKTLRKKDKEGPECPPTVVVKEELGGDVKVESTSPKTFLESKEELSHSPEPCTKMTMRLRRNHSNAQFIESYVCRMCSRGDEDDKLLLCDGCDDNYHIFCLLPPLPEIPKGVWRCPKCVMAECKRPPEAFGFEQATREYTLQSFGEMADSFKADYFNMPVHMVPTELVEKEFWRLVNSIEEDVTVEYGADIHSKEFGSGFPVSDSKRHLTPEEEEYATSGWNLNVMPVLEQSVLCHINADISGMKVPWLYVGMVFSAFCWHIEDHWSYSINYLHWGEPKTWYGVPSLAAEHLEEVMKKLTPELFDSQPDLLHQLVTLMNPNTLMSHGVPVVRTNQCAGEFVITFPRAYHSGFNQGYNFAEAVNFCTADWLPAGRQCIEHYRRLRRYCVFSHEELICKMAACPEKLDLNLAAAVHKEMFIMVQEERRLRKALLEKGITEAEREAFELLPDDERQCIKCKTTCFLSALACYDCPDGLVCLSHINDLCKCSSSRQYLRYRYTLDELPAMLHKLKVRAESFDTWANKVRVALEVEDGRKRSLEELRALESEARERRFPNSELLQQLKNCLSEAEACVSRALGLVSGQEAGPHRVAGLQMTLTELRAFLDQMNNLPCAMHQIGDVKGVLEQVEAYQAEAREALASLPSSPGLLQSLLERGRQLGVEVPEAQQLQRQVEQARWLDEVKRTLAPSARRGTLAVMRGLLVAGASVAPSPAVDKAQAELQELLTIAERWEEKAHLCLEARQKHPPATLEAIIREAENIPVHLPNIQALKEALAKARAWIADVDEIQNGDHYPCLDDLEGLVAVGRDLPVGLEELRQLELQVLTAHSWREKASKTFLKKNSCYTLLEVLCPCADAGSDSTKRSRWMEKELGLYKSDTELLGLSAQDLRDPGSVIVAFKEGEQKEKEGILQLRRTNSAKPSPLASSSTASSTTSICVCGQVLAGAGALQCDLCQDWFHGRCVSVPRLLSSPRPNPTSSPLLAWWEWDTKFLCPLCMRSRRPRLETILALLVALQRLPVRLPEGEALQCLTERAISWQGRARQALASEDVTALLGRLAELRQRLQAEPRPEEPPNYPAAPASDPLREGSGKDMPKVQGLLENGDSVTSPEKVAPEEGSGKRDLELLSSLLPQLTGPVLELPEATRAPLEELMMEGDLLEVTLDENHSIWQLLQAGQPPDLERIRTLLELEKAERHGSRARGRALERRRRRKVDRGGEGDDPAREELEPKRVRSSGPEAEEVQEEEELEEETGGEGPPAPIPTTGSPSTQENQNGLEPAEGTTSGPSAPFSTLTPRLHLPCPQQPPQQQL
# Text: as §1
# SIRT5 = biological target: T5, SIRT5 (Homo sapiens, UniProt Q9NXA8)
# T5 construct: purchased BPS Bioscience; Eurofins (HDAC4, 5, 7-11)
# T5 sequence (Q9NXA8 37-310): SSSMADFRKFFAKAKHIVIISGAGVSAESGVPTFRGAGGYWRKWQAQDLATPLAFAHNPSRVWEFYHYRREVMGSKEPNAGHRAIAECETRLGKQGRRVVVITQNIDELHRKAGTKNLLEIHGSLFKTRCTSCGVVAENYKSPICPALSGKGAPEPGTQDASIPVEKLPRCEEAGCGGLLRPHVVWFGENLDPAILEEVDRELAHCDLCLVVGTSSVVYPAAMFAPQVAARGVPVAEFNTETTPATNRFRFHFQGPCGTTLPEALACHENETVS
# Text: as §1
# SUV39H2 = biological target: T6, SUV39H2 (Homo sapiens, UniProt Q9H5I1)
# T6 construct: purchased BPS Bioscience; Eurofins (HDAC4, 5, 7-11)
# Text: as §1
# DOT1L = biological target: T7, DOT1L (Homo sapiens, UniProt Q8TEK3)
# T7 construct: purchased BPS Bioscience; Eurofins (HDAC4, 5, 7-11)
# T7 sequence (Q8TEK3 whole entry): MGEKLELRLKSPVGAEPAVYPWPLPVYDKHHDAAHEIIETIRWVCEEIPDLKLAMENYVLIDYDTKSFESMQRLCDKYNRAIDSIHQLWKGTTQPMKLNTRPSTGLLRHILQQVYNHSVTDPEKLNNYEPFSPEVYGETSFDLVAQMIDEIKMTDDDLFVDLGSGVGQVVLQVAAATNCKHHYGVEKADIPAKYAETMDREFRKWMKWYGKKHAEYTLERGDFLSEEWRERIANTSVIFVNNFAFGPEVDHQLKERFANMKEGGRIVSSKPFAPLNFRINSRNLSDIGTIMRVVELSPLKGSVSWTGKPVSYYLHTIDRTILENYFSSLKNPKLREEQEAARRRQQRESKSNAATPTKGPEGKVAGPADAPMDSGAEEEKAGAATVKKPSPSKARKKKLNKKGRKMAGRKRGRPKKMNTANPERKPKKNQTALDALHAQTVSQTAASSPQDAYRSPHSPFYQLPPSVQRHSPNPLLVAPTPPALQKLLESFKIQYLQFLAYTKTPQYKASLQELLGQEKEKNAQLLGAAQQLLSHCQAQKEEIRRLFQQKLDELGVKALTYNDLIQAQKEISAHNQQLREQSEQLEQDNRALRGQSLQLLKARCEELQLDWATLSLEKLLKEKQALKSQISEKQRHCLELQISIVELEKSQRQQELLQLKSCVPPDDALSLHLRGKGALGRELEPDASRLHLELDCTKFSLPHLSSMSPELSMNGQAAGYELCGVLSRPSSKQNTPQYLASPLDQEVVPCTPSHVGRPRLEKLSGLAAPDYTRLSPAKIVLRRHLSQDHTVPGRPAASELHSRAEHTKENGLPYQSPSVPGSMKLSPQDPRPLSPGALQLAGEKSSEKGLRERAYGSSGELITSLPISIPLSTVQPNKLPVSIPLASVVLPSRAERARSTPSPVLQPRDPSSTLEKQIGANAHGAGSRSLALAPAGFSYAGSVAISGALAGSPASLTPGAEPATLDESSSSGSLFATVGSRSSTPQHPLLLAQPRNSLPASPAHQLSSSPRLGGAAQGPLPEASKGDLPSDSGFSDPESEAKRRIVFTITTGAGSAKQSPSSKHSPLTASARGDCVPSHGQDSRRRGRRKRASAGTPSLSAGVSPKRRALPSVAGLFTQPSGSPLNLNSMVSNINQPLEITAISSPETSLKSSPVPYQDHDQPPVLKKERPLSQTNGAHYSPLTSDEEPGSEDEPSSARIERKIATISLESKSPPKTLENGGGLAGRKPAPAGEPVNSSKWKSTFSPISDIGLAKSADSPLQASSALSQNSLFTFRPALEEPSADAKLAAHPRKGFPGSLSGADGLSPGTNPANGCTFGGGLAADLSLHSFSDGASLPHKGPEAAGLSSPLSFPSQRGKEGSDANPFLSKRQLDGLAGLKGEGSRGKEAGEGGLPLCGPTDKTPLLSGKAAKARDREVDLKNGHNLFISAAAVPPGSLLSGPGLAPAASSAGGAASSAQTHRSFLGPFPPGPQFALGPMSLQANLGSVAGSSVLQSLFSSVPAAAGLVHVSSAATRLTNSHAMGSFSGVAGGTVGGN
# Text: as §1
# SUV4-20H1 = biological target: T8, SUV4-20H1 (Homo sapiens, UniProt Q4FZB7)
# T8 construct: purchased BPS Bioscience; Eurofins (HDAC4, 5, 7-11)
# Text: as §1
# EZH2 = biological target: T9, EZH2 (Homo sapiens, UniProt Q15910)
# T9 construct: purchased BPS Bioscience; Eurofins (HDAC4, 5, 7-11)
# Text: as §1
# FBXL10 = biological target: T10, FBXL10 (Homo sapiens, UniProt Q8NHM5)
# T10 construct: purchased BPS Bioscience (contracted assay service)
# T10 sequence (Q8NHM5 1-1336): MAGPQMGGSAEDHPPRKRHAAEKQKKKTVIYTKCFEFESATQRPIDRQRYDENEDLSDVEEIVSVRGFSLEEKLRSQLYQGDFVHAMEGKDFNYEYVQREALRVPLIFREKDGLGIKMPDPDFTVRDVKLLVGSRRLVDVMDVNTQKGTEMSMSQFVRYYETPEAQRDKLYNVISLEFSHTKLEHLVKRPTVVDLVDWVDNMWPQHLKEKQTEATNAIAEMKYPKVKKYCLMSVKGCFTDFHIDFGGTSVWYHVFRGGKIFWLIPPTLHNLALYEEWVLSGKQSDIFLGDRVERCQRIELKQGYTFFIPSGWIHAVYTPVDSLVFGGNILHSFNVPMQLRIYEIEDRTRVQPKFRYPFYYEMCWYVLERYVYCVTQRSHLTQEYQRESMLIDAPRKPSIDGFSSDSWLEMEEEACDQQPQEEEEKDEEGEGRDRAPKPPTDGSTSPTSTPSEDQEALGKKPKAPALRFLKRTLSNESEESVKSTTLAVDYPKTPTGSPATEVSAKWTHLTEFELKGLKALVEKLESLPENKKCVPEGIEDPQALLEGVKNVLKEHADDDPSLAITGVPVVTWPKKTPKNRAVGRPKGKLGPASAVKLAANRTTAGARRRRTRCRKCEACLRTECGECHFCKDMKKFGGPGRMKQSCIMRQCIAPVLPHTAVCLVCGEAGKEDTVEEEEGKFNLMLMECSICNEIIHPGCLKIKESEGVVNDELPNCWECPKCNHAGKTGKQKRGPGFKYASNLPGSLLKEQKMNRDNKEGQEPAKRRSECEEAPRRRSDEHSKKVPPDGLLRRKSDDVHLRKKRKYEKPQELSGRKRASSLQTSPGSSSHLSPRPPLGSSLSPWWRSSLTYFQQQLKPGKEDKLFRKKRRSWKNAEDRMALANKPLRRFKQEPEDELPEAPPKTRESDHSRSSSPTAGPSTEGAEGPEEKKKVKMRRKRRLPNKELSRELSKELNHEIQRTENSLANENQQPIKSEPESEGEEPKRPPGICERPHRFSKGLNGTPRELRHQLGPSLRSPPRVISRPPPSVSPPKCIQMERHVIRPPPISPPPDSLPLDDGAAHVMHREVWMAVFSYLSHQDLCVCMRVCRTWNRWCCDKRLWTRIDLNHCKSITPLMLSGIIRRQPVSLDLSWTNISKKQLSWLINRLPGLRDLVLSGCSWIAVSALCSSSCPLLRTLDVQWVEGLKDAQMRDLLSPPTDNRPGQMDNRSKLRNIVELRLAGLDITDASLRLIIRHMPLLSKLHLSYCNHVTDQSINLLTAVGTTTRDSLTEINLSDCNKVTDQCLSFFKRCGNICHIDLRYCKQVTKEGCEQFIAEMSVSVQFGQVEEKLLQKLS
# Text: as §1
# NSD2 = biological target: T11, NSD2 (Homo sapiens, UniProt O96028)
# T11 construct: purchased BPS Bioscience; Eurofins (HDAC4, 5, 7-11)
# T11 sequence (O96028 whole entry): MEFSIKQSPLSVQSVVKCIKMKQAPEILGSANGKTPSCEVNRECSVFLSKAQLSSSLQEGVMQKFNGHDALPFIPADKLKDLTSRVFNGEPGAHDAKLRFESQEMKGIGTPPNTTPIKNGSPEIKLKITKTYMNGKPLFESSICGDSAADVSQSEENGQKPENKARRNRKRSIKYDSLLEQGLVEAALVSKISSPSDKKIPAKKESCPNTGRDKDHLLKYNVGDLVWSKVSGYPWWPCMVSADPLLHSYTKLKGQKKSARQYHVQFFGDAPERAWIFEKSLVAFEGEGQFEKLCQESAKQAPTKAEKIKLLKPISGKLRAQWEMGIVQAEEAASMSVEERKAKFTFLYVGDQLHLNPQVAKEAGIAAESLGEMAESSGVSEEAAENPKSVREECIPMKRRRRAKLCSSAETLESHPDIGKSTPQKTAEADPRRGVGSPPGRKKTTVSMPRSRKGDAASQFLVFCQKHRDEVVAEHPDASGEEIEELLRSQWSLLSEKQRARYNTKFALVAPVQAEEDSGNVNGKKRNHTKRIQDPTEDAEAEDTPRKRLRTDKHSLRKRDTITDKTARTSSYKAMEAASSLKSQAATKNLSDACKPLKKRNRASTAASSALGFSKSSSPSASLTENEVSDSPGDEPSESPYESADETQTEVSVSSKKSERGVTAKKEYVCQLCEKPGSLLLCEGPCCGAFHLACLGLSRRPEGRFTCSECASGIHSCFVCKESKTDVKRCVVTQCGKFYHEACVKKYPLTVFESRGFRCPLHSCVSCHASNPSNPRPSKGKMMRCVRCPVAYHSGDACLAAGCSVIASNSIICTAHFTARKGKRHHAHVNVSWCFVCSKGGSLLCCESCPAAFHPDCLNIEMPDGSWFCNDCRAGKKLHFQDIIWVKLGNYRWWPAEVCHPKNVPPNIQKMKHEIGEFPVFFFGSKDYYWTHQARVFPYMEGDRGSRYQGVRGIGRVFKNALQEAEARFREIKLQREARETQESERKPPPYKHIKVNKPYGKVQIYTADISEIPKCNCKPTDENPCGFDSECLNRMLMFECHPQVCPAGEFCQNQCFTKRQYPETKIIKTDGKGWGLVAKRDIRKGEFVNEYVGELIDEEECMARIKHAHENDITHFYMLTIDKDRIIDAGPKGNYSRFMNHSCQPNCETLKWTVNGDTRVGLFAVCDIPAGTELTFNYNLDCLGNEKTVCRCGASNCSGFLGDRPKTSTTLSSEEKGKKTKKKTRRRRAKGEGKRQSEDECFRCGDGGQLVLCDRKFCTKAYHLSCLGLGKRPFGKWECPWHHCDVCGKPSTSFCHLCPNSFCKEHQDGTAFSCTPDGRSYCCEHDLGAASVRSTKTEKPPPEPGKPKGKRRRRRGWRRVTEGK
# Text: as §1
# SETD2 = biological target: T12, SETD2 (Homo sapiens, UniProt Q9BYW2)
# T12 construct: purchased BPS Bioscience; Eurofins (HDAC4, 5, 7-11)
# Text: as §1
# SETDB1 = biological target: T13, SETDB1 (Homo sapiens, UniProt Q15047)
# T13 construct: purchased BPS Bioscience; Eurofins (HDAC4, 5, 7-11)
# Text: as §1
Structure (SMILES),inhibition at 10 µM (EZH2 (A677G)),IC50 (DNMT3B/3L),inhibition at 10 µM (DNMT3B/3L),inhibition at 10 µM (JHDM1D),inhibition at 10 µM (Jarid1C),inhibition at 10 µM (SIRT5),inhibition at 10 µM (SUV39H2),inhibition at 10 µM (DOT1L),inhibition at 10 µM (SUV4-20H1),inhibition at 10 µM (EZH2),IC50 (FBXL10),inhibition at 10 µM (FBXL10),inhibition at 10 µM (NSD2),inhibition at 10 µM (SETD2),inhibition at 10 µM (SETDB1)
"COc1cc2nc(-c3ccc(C)o3)cc(NCC3CCN(c4ncc(C(=O)NO)cn4)CC3)c2cc1OC [CM-444, 2-[4-[[[6,7-dimethoxy-2-(5-methyl-2-furyl)-4-quinolyl]amino]methyl]-1-piperidyl]pyrimidine-5-carbohydroxamic acid]",0%,2.3 µM,68%,4%,2%,7%,0%,0%,2%,0%,6.7 µM,58%,35%,0%,0%
"COc1cc2nc(-c3cc(C)oc3C)cc(NCC3CCN(c4ncc(C(=O)NO)cn4)CC3)c2cc1OC [CM-1758, 2-[4-[[[2-(2,5-dimethyl-3-furyl)-6,7-dimethoxy-4-quinolyl]amino]methyl] -1-piperidyl]pyrimidine-5-carbohydroxamic acid]",5%,–,20%,37%,26%,2%,1%,0%,1%,0%,–,34%,16%,11%,3%
